Measured values as given in patent EP1377579B1 (Aventis Pharmaceuticals Inc., priority 2000, dated 2002).
Where two headings read alike, the source gives them in different places.

Legend:
cdk2/cyclin E = cdk2/cyclin E (Homo sapiens, UniProt P24941); test: Cyclin-dependent kinase assay, cdk2/cyclin E; conditions: CDK2 IC50, nM, GST-pRb substrate, 10 µM ATP
in vivo = conditions: male, Hsd:ICR (CD-1), mouse, plasma
Description: Male mice are given single intravenous cassette doses of CDK inhibitor compounds.
Doses are adjusted for the weight of the individual dihydrochloride and trihydrochloride salts. The compounds are stored desiccated within a closed cabinet at room temperature before use. Dose levels are prepared on the morning of each study.
A single intravenous cassette dose (18 or 15 mg/kg free base) is administered. For each compound, this is equivalent to a dose of approx. 3 mg/kg free base. […] The dose is administered at a volume of 10 ml/kg (total volume of approximately 0.25 ml/animal).
Male mice (Hsd:ICR (CD-1® SD®), Harlan), each weighing approximately 20 - 30 g at the start of the study. […] Water is available ad libitum throughout the study.
Dose Administration and Sample Collection: • A single cassette dose of 5-6 compounds is administered by bolus injection into the tail vein over a 10 - 15-second period. […] Whole blood (approximately 0.6 ml/sample) is obtained by cardiac puncture and transferred to 3 ml glass tubes containing 45 U sodium heparin.
Sample Processing: Plasma: Whole blood is centrifuged at approximately 3,200 rpm for 10 min at approximately 5°C and the plasma (approx. 0.3 ml/sample) is transferred to chilled plastic vials and stored at approx. -70°C until bioanalysis.
Sample Analysis: Concentrations of each test article in plasma are quantitated by a non-validated method based on LC/MS using the following protocol.
Samples are removed from the freezer, allowed to thaw at room temperature, and vortexed to insure complete homogenization prior to sample manipulation. Samples are then prepared according to the following scheme: • 1. transfer 48 µL of plasma (blank mouse sample) into a 12 x 75 mm test tube. • 2. add 12 µL of working standard to the blank plasma for standard curve preparation. • 3. […] Inject 25 µL on LC/MS.
Data Analysis: Concentrations of Compounds in plasma of individual animals are determined by bioanalytics. […] Statistical analyses are limited to simple expressions of variation (mean and standard deviation). The plasma AUC (area-under-curve) is determined by the linear trapezoidal rule. […] All PK parameters are determined by noncompartmental methods using WinNonlin version 3.0 (Pharsight Corp). Plasma vs. time profiles are prepared by Sigma Plot (SPSS, Inc.).

NCI-H460 = test: In vitro proliferation assay (MTT), NCI-H460; type: cell-based; conditions: Homo sapiens
Outline: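 IC50 values come from live-cell estimates based on MTT reduction measured at 570 nm after 3 days of compound treatment. Cells are seeded at 1000 to 2500 per well in serum-supplemented RPMI 1640. They are stained with MTT for 2 to 4 hr at 37 C and the dye is then taken up in DMSO.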

[1] = Red blood cell binding, human whole blood; type: in vitro ADME; conditions: 30 minutes at 37°C, 500 ng/ml
Description: Compounds, including one positive control, are assessed for red blood cell (RBC) uptake, using a modified procedure based on the protocol reported in Sun, J.X.S., et al. High-performance liquid chromatographic analysis, plasma protein binding and red blood cell partitioning of phenprobamate. Biopharmaceutics and Drug Disposition, 8 (1987) 341-351.
Briefly, RBC uptake is evaluated by comparison of the levels in spiked plasma (n=3) and plasma isolated from spiked whole blood (n=3). Compounds are incubated with human and mouse whole blood, respectively, for 30 minutes at 37°C using a nominal concentration of 500 ng/ml. Following centrifugation, the plasma is removed and submitted for analysis. Each compound is also spiked into blank plasma at a nominal concentration of 500 ng/ml, and submitted for analysis. Levels in the two plasma samples (Cp' and Cp in the equation below) and the blood hematocrit are used to determine the red blood cell to plasma ratio (Crbc/Cp). (Crbc)/(Cp) = (Cpʹ)/(Cp•H)-((1-H))/(H) [formula] In equation 1, Cp' is the level of drug in the spiked "blank" plasma, Cp is the level of drug in the plasma of spiked whole blood, and H is the hematocrit. The hematocrit values are determined as 0.4 for human whole blood and 0.41 for mouse whole blood. The samples are analyzed with ESI LC/MS, using positive ion detection with an internal standard.
The red blood cell to plasma ratio is determined for each compound using equation 1. Tables 6 and 7 summarize the respective mean Crbc/Cp values and standard deviations for mouse and human whole blood, respectively, in descending order based on the red blood cell to plasma ratio, where"*" denotes Positive Control, and "ND" denotes Not Determined. MDL 108552 is included as a positive control for red blood cell uptake. Table 6. Red Blood Cell to Plasma Ratio for compounds in mouse whole blood

Colo-205 = test: In vitro proliferation assay (MTT), Colo-205; type: cell-based; conditions: Homo sapiens
Outline: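 After 3 days of compound exposure, MTT was added to Colo-205 cultures for 2–4 h at 37 °C. Formazan was dissolved in DMSO and absorbance read at 570 nm. Cells had been plated at 1000–2500/well and left to recover overnight; IC50 values came from the raw readings.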

[2] = system: PC-3 Human Prostate Tumors; test: PC-3 human prostate tumor xenograft in nude mice; type: in vivo; set-up: unit not given here
Description: Antitumor efficacy is assessed using two subcutaneous human tumor xenograft models. The studies are performed using conventional assay techniques. Briefly, HL-60 (leukemia, 5 x10^5 cells) and PC-3 (prostate, 5 x 10^6 cells) tumor cells are injected subcuateously into nude mice (Crl-CD1-Br-nu, Charles River Laboratory, Wilmington, MA). Dosing with compounds began when tumors reached 50 to 100 mm^3. The dose route/schedule for the test compounds is ip/qld (5x/wk). The test doses are set based on the maximum tolerated dose (MTD). […] The test doses for the efficacy studies are set at 1/3rd the MTD (low dose) and the MTD (high dose). The results are shown in Tables 4 and 5 (HL-60, leukemia) (PC-3, prostate cancer). The length of the treatment phase is dependent on the tumor growth rate for the two models. This treatment phase is typically about 3 weeks for the HL-60 model and about 5 weeks for the PC-3 model. […] Dosing with flavopiridol is for the same time frame as for the experimental compounds in both xenograft models. Tumor volume (twice weekly) and body weights (once weekly) are monitored throughout the course of the treatment phase of the experiment. Tumor sizes are measured by external caliper measurements of protruding tumor. Volumes are calculated using the following formula: volume =½ (a x b2), where b is the smaller of two perpendicular diameters.

[3] = NCI-H460, MTT assay, value (SD, n) where given, read-out: H-460 Lung (IC50 µM)
[4] = COLO 205, MTT assay, value (SD, n) where given, read-out: Colo-205 Colon (IC50 µM)
[5] = NCI-H460, read-out: H-460 Lung (IC50 µM)
[6] = COLO 205, read-out: Colo-205 Colon (IC50 µM)

Row | SMILES | IC50 (cdk2/cyclin E) | AUC(0-inf) (in vivo; iv, 3 mg/kg) | Cmax (in vivo; iv, 3 mg/kg) | half-life (in vivo; iv, 3 mg/kg) | concentration at 0.083 h (in vivo; iv, 18 mg/kg) | concentration at 0.25 h (in vivo; iv, 18 mg/kg) | concentration at 0.5 h (in vivo; iv, 18 mg/kg) | concentration at 1 h (in vivo; iv, 18 mg/kg) | concentration at 3 h (in vivo; iv, 18 mg/kg) | concentration at 6 h (in vivo; iv, 18 mg/kg) | concentration at 8 h (in vivo; iv, 18 mg/kg) | Mean Red Blood Cell to Plasma Ratio [1] | PC-3 Mean Vol. ± SD ([2]; Table 5, dose 3 mg/kg ip) | IC50 (NCI-H460; [5]) | IC50 (Colo-205; [6]) | concentration at 0.083 h (in vivo; intravenous, 3 mg/kg) | concentration at 0.25 h (in vivo; intravenous, 3 mg/kg) | concentration at 0.5 h (in vivo; intravenous, 3 mg/kg) | concentration at 1 h (in vivo; intravenous, 3 mg/kg) | concentration at 3 h (in vivo; intravenous, 3 mg/kg) | further results
1 | Cl.Cl.N[C@H]1CC[C@H](Nc2nc(NC3CCN(C(=O)c4cccc(C(F)(F)F)c4F)CC3)c3ncn(C4CCCC4)c3n2)CC1 [compound 12, trans-1-{4-[2-(4-Amino-cyclohexylamino)-9-cyclopentyl-9H-purin-6-ylamino]-piperidin-1-yl}-1-(2-fluoro-3-trifluoromethyl-phenyl)-methanone dihydrochloride] | 5 nM | 2550 ng·h/mL | 4110 ng/mL | 2.3 h | 4110 ± 754 ng/mL | 2360 ± 124 ng/mL | 1090 ± 36.1 ng/mL | 465 ± 34.6 ng/mL | 74.7 ± 17.4 ng/mL | 27 ± 2.7 ng/mL | 16.9 ± 1.4 ng/mL | 3.6 | 1063 ± 693 |  |  |  |  |  |  |  | IC50 (NCI-H460; [3]): 0.38 µM; IC50 (Colo-205; [4]): 0.21 µM; PC-3 Mean Vol. ± SD ([2]; Table 5, dose 10 mg/kg ip): 1107 ± 606
2 | Cl.Cl.N[C@H]1CC[C@H](Nc2nc(NC3CCN(C(=O)Oc4ccc(Br)cc4)CC3)c3ncn(C4CCCC4)c3n2)CC1 [compound 81, trans-4-[2-(4-Amino-cyclohexylamino)-9-cyclopentyl-9H-purin-6-ylamino]-piperidine-1-carboxylic acid 4-bromo-phenyl ester dihydrochloride] | 39 nM | 660 ng·h/mL | 1770 ng/mL | 1.7 h | 1770 ± 384 ng/mL | 394 ± 142 ng/mL | 164 ± 47.2 ng/mL | 65.3 ± 10 ng/mL | 12.7 ± 3.4 ng/mL | 5.4 ± 1.5 ng/mL | 3.5 ± 0.9 ng/mL | 5.3 | 1007 ± 1120 | 0.07 µM | 0.03 µM |  |  |  |  |  | PC-3 Mean Vol. ± SD ([2]; Table 5, dose 1 mg/kg ip): 1258 ± 523
3 | COC(=O)c1ccc(OC(=O)N2CCC(Nc3nc(N[C@H]4CC[C@H](N)CC4)nc4c3ncn4C3CCCC3)CC2)cc1.Cl.Cl [compound 83, trans-4-[2-(4-Amino-cyclohexylamino)-9-cyclopentyl-9H-purin-6-ylamino]-piperidine-1-carboxylic acid 4-methoxycarbonyl-phenyl ester dihydrochloride] | 44 nM | 449 ng·h/mL | 1520 ng/mL | 0.7 h | 1520 ± 612 ng/mL | 218 ± 92.8 ng/mL | 61.3 ± 32.9 ng/mL | 14.1 ng/mL | 4.1 ng/mL | 1.6 ng/mL | 6.3 ng/mL | 4.1 | 899 ± 593 | 0.07 µM | 0.07 µM |  |  |  |  |  | PC-3 Mean Vol. ± SD ([2]; Table 5, dose 10 mg/kg ip): 1426 ± 1131
4 | COc1ccc(OC(=O)N2CCC(Nc3nc(N[C@H]4CC[C@H](N)CC4)nc4c3ncn4C3CCCC3)CC2)cc1.Cl.Cl [compound 84, trans-4-[2-(4-Amino-cyclohexylamino)-9-cyclopentyl-9H-purin-6-ylamino]-piperidine-1-carboxylic acid 4-methoxy-phenyl ester dihydrochloride] | 9 nM | 965 ng·h/mL | 1510 ng/mL | 1.5 h | 1510 ± 377 ng/mL | 883 ± 140 ng/mL | 446 ± 79 ng/mL | 202 ± 37.3 ng/mL | 27 ± 2.4 ng/mL | 6.1 ± 0.8 ng/mL | 2.9 ± 0.2 ng/mL | 2.0 | 1386 ± 752 | 0.07 µM | 0.03 µM |  |  |  |  |  | PC-3 Mean Vol. ± SD ([2]; Table 5, dose 1 mg/kg ip): 770 ± 567
5 | Cl.Cl.N[C@H]1CC[C@H](Nc2nc(NC3CCN(C(=O)Oc4ccc(F)cc4)CC3)c3ncn(C4CCCC4)c3n2)CC1 [compound 87, trans-4-[2-(4-Amino-cyclohexylamino)-9-cyclopentyl-9H-purin-6-ylamino]-piperidine-1-carboxylic acid 4-fluoro-phenyl ester dihydrochloride] | 42 nM | 513 ng·h/mL | 1170 ng/mL | 1.6 h |  |  |  |  |  |  |  | 8.4 |  | 0.08 µM | 0.16 µM | 1170 ± 153 ng/mL | 372 ± 35.9 ng/mL | 141 ± 9.5 ng/mL | 65 ± 14 ng/mL | 19.2 ± 6 ng/mL | concentration at 6 h (in vivo; intravenous, 3 mg/kg): 4.3 ± 0.7 ng/mL; concentration at 8 h (in vivo; intravenous, 3 mg/kg): 3.2 ± 1.6 ng/mL; PC-3 Mean Vol. ± SD ([2]; Table 4, dose 1 mg/kg ip): 3271 ± 2262; PC-3 Mean Vol. ± SD ([2]; Table 4, dose 3 mg/kg ip): 1396 ± 958
6 | Cl.Cl.N[C@H]1CC[C@H](Nc2nc(NC3CCN(C(=O)Oc4ccc(Cl)cc4)CC3)c3ncn(C4CCCC4)c3n2)CC1 [compound 88, trans-4-[2-(4-Amino-cyclohexylamino)-9-cyclopentyl-9H-purin-6-ylamino]-piperidine-1-carboxylic acid 4-chloro-phenyl ester dihydrochloride] | 7 nM | 642 ng·h/mL | 1480 ng/mL | 1.9 h |  |  |  |  |  |  |  | 2.6 |  | 0.06 µM | 0.04 µM | 1480 ± 272 ng/mL | 421 ± 49.9 ng/mL | 150 ± 5.9 ng/mL | 74.6 ± 16.1 ng/mL | 24.8 ± 7.4 ng/mL | concentration at 6 h (in vivo; intravenous, 3 mg/kg): 8.9 ± 1.6 ng/mL; concentration at 8 h (in vivo; intravenous, 3 mg/kg): 5.4 ± 2 ng/mL; PC-3 Mean Vol. ± SD ([2]; Table 4, dose 1 mg/kg ip): 1601 ± 1348; PC-3 Mean Vol. ± SD ([2]; Table 4, dose 3 mg/kg ip): 2278 ± 2110
7 | Cl.Cl.N[C@H]1CC[C@H](Nc2nc(NC3CCN(C(=O)Oc4ccc([N+](=O)[O-])cc4)CC3)c3ncn(C4CCCC4)c3n2)CC1 [compound 89, trans-4-[2-(4-Amino-cyclohexylamino)-9-cyclopentyl-9H-purin-6-ylamino]-piperidine-1-carboxylic acid 4-nitro-phenyl ester dihydrochloride] | 42 nM | 366 ng·h/mL | 642 ng/mL | 1.8 h |  |  |  |  |  |  |  | 4.2 |  | 0.03 µM | 0.01 µM | 642 ± 49.5 ng/mL | 303 ± 34.3 ng/mL | 142 ± 2.7 ng/mL | 52.4 ± 4.2 ng/mL | 17 ± 4.7 ng/mL | concentration at 6 h (in vivo; intravenous, 3 mg/kg): 3.7 ± 1 ng/mL; concentration at 8 h (in vivo; intravenous, 3 mg/kg): 3.8 ± 0.5 ng/mL; PC-3 Mean Vol. ± SD ([2]; Table 4, dose 1 mg/kg ip): 2572 ± 1052; PC-3 Mean Vol. ± SD ([2]; Table 4, dose 3 mg/kg ip): 866 ± 384
8 | Cl.Cl.N[C@H]1CC[C@H](Nc2nc(NC3CCN(S(=O)(=O)c4ccc(F)cc4)CC3)c3ncn(C4CCCC4)c3n2)CC1 [compound 106, trans-N^2-(4-Amino-cyclohexyl)-9-cyclopentyl-N^6-[1-(4-fluoro-benzenesulfonyl)-piperidin-4-yl]-9H-purine-2,6-diamine dihydrochloride] | 8 nM | 440 ng·h/mL | 765 ng/mL | 1.3 h |  |  |  |  |  |  |  | 3.9 |  |  |  | 765 ± 64.3 ng/mL | 397 ± 59.2 ng/mL | 185 ± 13 ng/mL | 63.3 ± 0.5 ng/mL | 21.8 ± 6.1 ng/mL | concentration at 6 h (in vivo; intravenous, 3 mg/kg): 4.3 ± 0.8 ng/mL; IC50 (NCI-H460; [3]): 0.22 µM; IC50 (Colo-205; [4]): 0.13 µM; PC-3 Mean Vol. ± SD ([2]; Table 4, dose 1 mg/kg ip): 1860 ± 741; PC-3 Mean Vol. ± SD ([2]; Table 4, dose 3 mg/kg ip): 1482 ± 906
